The text below walks through data of patent US20160175225A1, “Peptides and Their Use in the Treatment of Skin” (AVON PRODUCTS, INC., priority 2014, published 2016).

Assay [1] concerns Human dermal fibroblast cells. The experiment in a line: Pro-collagen I secretion by human dermal fibroblasts (HTRF human pro-collagen I kit). Conditions: percent change relative to vehicle control, 48 h. It is filed as cell-based. The procedure:
(§1) Human dermal fibroblast cells were grown in a 96 well plate in DMEM media (available from Corning, N.Y.) supplemented with 10% Fetal Bovine Serum (FBS) and L-glutamine (0.07×10^5 cells/plate). After reaching about 75% confluence, cells were transferred into DMEM media without FBS and incubated for 4-6 hours. Next, cells were treated with a peptide at 0.00001%, 0.0001%, 0.001% final concentration in DMEM media without FBS for 48 h. After treatment the media were collected, and cell viability was measured using MTT. Amount of collagen secreted was tested in the media using HTRF human pro-collagen I kit (available from Cisbio Inc., Bedford, Mass.). Amount of secreted Hyaluronic Acid (HA) was tested in the media using HA Elisa kit (available from Corgenix, Broomfield, Colo.).
(§2) Results are summarized in Table 5 below as percent change of pro-collagen I and/or HA production relative to vehicle control using the following keys with the peptide concentration provided in parentheses: […]
In general terms: TR-FRET usually uses a lanthanide donor and a delayed reading to cut background.

The subject of assay [2] is Human dermal fibroblast cells. The assay is described as follows: Hyaluronic acid (HA) secretion by human dermal fibroblasts (HA Elisa kit). It is filed as cell-based. The settings on record: percent change relative to vehicle control, 48 h. On the procedure: as §1, §2
Where [3] appears, read: concentration not given (tested at 0.00001%, 0.0001%, 0.001%).

Take “Ala-Glu-Cys-Lys (AECK) [peptide derived from PDGF]”: the “Increase in Pro-Collagen I Production” value in assay [1] (setting [3]) was 0 (0: <10%). In addition, the “Increase in HA Production” value in assay [2] (peptide concentration 0.001%) is recorded as “+++ (0.001%) (+++:90-150%)”.

Turning to EASAEPE, the “Increase in Pro-Collagen I Production” value in assay [1] (setting [3]) is listed as 0 (0: <10%). Further, in assay [2] (setting [3]), the “Increase in HA Production” value is listed as 0 (0: <20%).

Take GDALQPE: the “Increase in Pro-Collagen I Production” value in assay [1] (setting [3]) was 0 (0: <10%). In addition, the “Increase in HA Production” value in assay [2] (setting [3]) is reported as 0 (0: <20%).

For “IFGGTVYRS [Ile-Phe-Gly-Gly-Thr-Val-Tyr-Arg-Ser, peptide derived from CTGF]”, the “Increase in Pro-Collagen I Production” value in assay [1] (peptide concentration 0.001%) is “+ (0.001%) (+: 10-30%)”. Moreover, the “Increase in HA Production” value in assay [2] (peptide concentration 0.001%) is listed as “++ (0.001%) (++:50-90%)”.

On to LENTKRS, for which the “Increase in Pro-Collagen I Production” value in assay [1] (setting [3]) is 0 (0: <10%). In addition, the “Increase in HA Production” value in assay [2] (setting [3]) is 0 (0: <20%).

On to “Leu-Arg-Leu-Lys (LRLK) [peptide derived from GDF11 and TGFβ]”, for which the “Increase in Pro-Collagen I Production” value in assay [1] (setting [3]) was 0 (0: <10%). Further, the “Increase in HA Production” value in assay [2] (peptide concentration 0.001%) is “+ (0.001%) (+: 20-50%)”.

Regarding “Met-Val-Val (MVV) [peptide derived from GDF11]”, the “Increase in Pro-Collagen I Production” value in assay [1] (setting [3]) is 0 (0: <10%). In assay [2] (peptide concentration 0.0001%), the “Increase in HA Production” value was “+ (0.0001%) (+: 20-50%)”.

Regarding “NRNV: peptide sequence NRNV, origin PDGF, tested in Table 5”, in assay [1] (setting [3]), the “Increase in Pro-Collagen I Production” value is 0 (0: <10%). For the same substance, the “Increase in HA Production” value in assay [2] (setting [3]) was 0 (0: <20%).

Turning to “QILSKLRL [Gln-Ile-Leu-Ser-Lys-Leu-Arg-Leu, peptide derived from GDF11 and TGFβ]”, the “Increase in Pro-Collagen I Production” value in assay [1] (peptide concentration 0.001%) is “+ (0.001%) (+: 10-30%)”. For the same substance, in assay [2] (setting [3]), the “Increase in HA Production” value is recorded as 0 (0: <20%).

Consider “QPED: peptide sequence QPED, origin GDF11, tested in Table 5”, for which the “Increase in Pro-Collagen I Production” value in assay [1] (setting [3]) was 0 (0: <10%). In assay [2] (setting [3]), the “Increase in HA Production” value is 0 (0: <20%).

“RKIE: peptide sequence RKIE, origin PDGF, tested in Table 5”: the “Increase in Pro-Collagen I Production” value in assay [1] (setting [3]) was 0 (0: <10%). The “Increase in HA Production” value in assay [2] (setting [3]) is reported as 0 (0: <20%).

In the case of “RTPKISKPIKFELSG [Arg-Thr-Pro-Lys-Ile-Ser-Lys-Pro-Ile-Lys-Phe-Glu-Leu-Ser-Gly, peptide derived from CTGF]”, the “Increase in Pro-Collagen I Production” value in assay [1] (setting [3]) is 0 (0: <10%). Further, the “Increase in HA Production” value in assay [2] (peptide concentration 0.001%) was “+ (0.001%) (+: 20-50%)”.

Take “TAKDGAP [Thr-Ala-Lys-Asp-Gly-Ala-Pro, peptide derived from CTGF]”: the “Increase in Pro-Collagen I Production” value in assay [1] (peptide concentration 0.00001%) is “+ (0.00001%) (+: 10-30%)”. In addition, the “Increase in HA Production” value in assay [2] (peptide concentration 0.001%) is “++ (0.001%) (++:50-90%)”.
